Measured values published in patent US20050014845A1, “Ambroxol for the treatment of epilepsy” (Boehringer Ingelheim International GmbH, priority 2003, published 2005).

Tests used:
human GluR1/2 receptors = target: T1, human GluR1/2 receptors (Homo sapiens, UniProt P42261+P42262); assay: Patch-Clamp of glutamate-induced membrane currents in HEK 293 cells expressing GluR1/2; type: cell-based; settings: 1 mM glutamate for 1 s, holding potential −80 mV
T1 construct: expressed in transfected cells; host or cells: HEK 293
T1 sequence (P42261 19-906): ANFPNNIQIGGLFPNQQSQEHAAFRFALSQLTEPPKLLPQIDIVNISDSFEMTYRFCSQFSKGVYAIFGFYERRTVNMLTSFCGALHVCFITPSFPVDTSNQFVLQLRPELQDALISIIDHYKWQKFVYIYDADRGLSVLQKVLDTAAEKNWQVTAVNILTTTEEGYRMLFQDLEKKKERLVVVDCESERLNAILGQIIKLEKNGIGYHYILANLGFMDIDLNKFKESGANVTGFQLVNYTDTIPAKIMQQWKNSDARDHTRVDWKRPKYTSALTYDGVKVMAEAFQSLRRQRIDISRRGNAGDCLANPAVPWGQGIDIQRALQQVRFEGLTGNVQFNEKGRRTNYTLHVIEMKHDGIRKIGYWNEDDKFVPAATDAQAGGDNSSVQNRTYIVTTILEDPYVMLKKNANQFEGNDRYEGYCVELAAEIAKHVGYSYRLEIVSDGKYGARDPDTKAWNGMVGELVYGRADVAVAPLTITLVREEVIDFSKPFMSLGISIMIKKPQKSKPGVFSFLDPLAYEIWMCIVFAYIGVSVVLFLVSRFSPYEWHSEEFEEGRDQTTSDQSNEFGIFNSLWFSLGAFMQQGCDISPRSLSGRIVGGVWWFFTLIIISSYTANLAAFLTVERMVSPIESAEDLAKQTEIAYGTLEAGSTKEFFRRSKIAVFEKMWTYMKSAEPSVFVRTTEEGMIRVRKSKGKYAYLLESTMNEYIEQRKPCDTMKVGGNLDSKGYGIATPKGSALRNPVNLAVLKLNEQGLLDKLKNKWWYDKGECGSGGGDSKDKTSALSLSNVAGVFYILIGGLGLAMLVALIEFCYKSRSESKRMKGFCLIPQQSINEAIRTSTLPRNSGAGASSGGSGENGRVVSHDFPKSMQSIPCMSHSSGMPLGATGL
T1 sequence (P42262 22-883 limits assumed): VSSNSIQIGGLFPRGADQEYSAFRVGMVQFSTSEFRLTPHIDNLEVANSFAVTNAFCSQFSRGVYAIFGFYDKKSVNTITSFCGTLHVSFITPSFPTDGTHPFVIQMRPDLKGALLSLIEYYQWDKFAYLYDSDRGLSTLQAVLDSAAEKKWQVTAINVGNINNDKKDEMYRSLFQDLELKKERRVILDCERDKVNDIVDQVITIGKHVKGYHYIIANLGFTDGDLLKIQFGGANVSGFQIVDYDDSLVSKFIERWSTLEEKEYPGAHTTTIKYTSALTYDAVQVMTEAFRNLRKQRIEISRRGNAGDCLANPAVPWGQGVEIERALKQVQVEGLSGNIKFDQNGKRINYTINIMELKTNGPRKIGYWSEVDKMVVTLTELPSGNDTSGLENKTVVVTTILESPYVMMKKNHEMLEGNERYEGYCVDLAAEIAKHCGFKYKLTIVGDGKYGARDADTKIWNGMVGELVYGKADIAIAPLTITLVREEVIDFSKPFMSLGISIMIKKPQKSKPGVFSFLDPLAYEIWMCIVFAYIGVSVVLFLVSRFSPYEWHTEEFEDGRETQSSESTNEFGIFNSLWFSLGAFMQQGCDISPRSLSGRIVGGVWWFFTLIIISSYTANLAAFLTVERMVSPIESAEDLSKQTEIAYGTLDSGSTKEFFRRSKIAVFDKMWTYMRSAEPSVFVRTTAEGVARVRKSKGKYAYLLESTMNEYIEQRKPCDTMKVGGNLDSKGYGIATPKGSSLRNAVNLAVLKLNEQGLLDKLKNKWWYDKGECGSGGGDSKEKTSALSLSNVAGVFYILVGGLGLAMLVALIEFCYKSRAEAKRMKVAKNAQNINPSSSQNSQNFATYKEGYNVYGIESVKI
Procedure: HEK 293 cells which expressed functionally recombinant human GluR1/2 receptors were electrophysiologically investigated by the Patch-Clamp method ([…]). The administration of 1 mM glutamate (for 1 s at a holding potential of −80 mV) induced membrane currents which were inhibited by the joint administration of ambroxol.

[1] = test system: centrally expressed neuronal sodium channels; settings: neuronal sodium channel subtypes, read-out: half-maximal inhibition of centrally expressed channels; cited from earlier work

Nc1c(Br)cc(Br)cc1CN[C@H]1CC[C@H](O)CC1 [ambroxol, trans-4-(2-amino-3,5-dibromobenzylamino)cyclohexanol]
concentrations inhibiting glutamate-induced membrane currents (human GluR1/2 receptors): 30 to 1000 µM
IC50 [1]: 111 µM
